Source: ChEMBL document CHEMBL1201862, “PubChem BioAssay data set” (2004)
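Interpolation was linear, between the two tested concentrations surrounding the appropriate level; five concentrations were tested over 48 hours in 96-well plates. GI50: concentration for 50% inhibition of growth.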 Active and inactive are the calls of the source. No stated cut-off is given here; in the data, active = GI50 up to about 1.1 µM and inactive = higher.

Tests used:
Test in all cases: NCI anticancer screen, dose series, 48 h
[1] = tested on: HOP-18
[2] = tested on: OVCAR-5
[3] = tested on: RXF 393
[4] = tested on: HT-29
[5] = tested on: K562
[6] = tested on: ACHN
[7] = tested on: 786-0
[8] = tested on: SK-MEL-5
[9] = tested on: HOP-62
[10] = tested on: UACC-257
[11] = tested on: SN12C
[12] = tested on: M19-MEL
[13] = tested on: NCI-H226
[14] = tested on: LXFL 529
[15] = tested on: DLD-1
[16] = tested on: DMS-273
[17] = tested on: RXF 631
[18] = tested on: HCT-15
[19] = tested on: LOX IMVI
[20] = tested on: UACC-62
[21] = tested on: NCI-H522
[22] = tested on: SF-539
[23] = tested on: NCI-H23
[24] = tested on: U-251
[25] = tested on: KM-20L2
[26] = tested on: RPMI-8226
[27] = tested on: SNB-19
[28] = tested on: SW-620
[29] = tested on: UO-31
[30] = tested on: SK-OV-3
[31] = tested on: OVCAR-3
[32] = tested on: OVCAR-4
[33] = tested on: A549
[34] = tested on: HCT-116
[35] = tested on: CAKI-1
[36] = tested on: SNB-75
[37] = tested on: SK-MEL-28
[38] = tested on: DMS-114
[39] = tested on: SR
[40] = tested on: IGROV-1
[41] = tested on: HCC 2998
[42] = tested on: Malme-3M
[43] = tested on: SF-268
[44] = tested on: COLO 205
[45] = tested on: A498
[46] = tested on: OVCAR-8
[47] = tested on: CCRF-CEM
[48] = tested on: MOLT-4
[49] = tested on: HOP-92
[50] = tested on: M14
[51] = tested on: SNB-78
[52] = tested on: TK-10
[53] = tested on: SK-MEL-2
[54] = tested on: EKVX
[55] = tested on: SF-295
[56] = tested on: HL-60
[57] = tested on: XF498
[58] = tested on: KM12
[59] = tested on: NCI-H460

`N#CCC(=O)N/N=C1/C(=O)NC(=O)C(=O)C1c1nc2ccccc2s1` (centres undefined) was tested, and the GI50 [1] was > 100 µM (inactive), the GI50 [2] was > 100 µM (inactive) and the GI50 [3] was > 100 µM (inactive). The GI50 [4] was > 100 µM (inactive), the GI50 [5] was > 100 µM (inactive) and the GI50 [6] was > 100 µM (inactive). The GI50 [7] was > 100 µM (inactive), the GI50 [8] was > 100 µM (inactive) and the GI50 [9] was > 100 µM (inactive). For the same compound, the GI50 [10] was > 100 µM (inactive), the GI50 [11] was > 100 µM (inactive) and the GI50 [12] was > 100 µM (inactive). For the same compound, the GI50 [13] was 50.1 µM (inactive), the GI50 [14] was > 100 µM (inactive) and the GI50 [15] was > 100 µM (inactive). The GI50 [16] was > 100 µM (inactive), the GI50 [17] was > 100 µM (inactive) and the GI50 [18] was over 100 µM. For the same compound, the GI50 [19] was > 100 µM (inactive), the GI50 [20] was > 100 µM (inactive) and the GI50 [21] was > 100 µM (inactive). For the same compound, the GI50 [22] was > 100 µM (inactive), the GI50 [23] was > 100 µM (inactive) and the GI50 [24] was > 100 µM (inactive). The GI50 [25] was > 100 µM (inactive), the GI50 [26] was > 100 µM (inactive) and the GI50 [27] was > 100 µM (inactive). The GI50 [28] was > 100 µM (inactive), the GI50 [29] was > 100 µM (inactive) and the GI50 [30] was > 100 µM (inactive). For the same compound, the GI50 [31] was > 100 µM (inactive), the GI50 [32] was > 100 µM (inactive) and the GI50 [33] was > 100 µM (inactive). For the same compound, the GI50 [34] was > 100 µM (inactive), the GI50 [35] was > 100 µM (inactive) and the GI50 [36] was > 100 µM (inactive). The GI50 [37] was > 100 µM (inactive), the GI50 [38] was > 100 µM (inactive) and the GI50 [39] was 71.8 µM (inactive). For the same compound, the GI50 [40] was > 100 µM (inactive), the GI50 [41] was > 100 µM (inactive) and the GI50 [42] was > 100 µM (inactive). The GI50 [43] was > 100 µM (inactive), the GI50 [44] was > 100 µM (inactive) and the GI50 [45] was > 100 µM (inactive). For the same compound, the GI50 [46] was > 100 µM (inactive), the GI50 [47] was > 100 µM (inactive) and the GI50 [48] was > 100 µM (inactive). For the same compound, the GI50 [49] was 67.5 µM (inactive), the GI50 [50] was > 100 µM (inactive) and the GI50 [51] was > 100 µM (inactive). The GI50 [52] was > 100 µM (inactive), the GI50 [53] was > 100 µM (inactive) and the GI50 [54] was > 100 µM (inactive). The GI50 [55] was > 100 µM (inactive).
For `COc1cc2c(c(OC)c1OC)-c1ccc(SC)c(=O)cc1C(CC(=O)Oc1ccc([N+](=O)[O-])cc1)C2` (centres undefined), the GI50 [1] was > 33.5 µM (inactive), the GI50 [2] was 6.1 µM (inactive) and the GI50 [3] was 0.0331 µM (active). For the same compound, the GI50 [5] was < 0.0444 µM (active), the GI50 [8] was 0.0726 µM (active) and the GI50 [9] was 4.44 µM (inactive). The GI50 [56] was 0.226 µM (active), the GI50 [10] was 0.486 µM (active) and the GI50 [12] was 0.18 µM (active). The GI50 [13] was 0.128 µM (active), the GI50 [17] was < 0.01 µM (active) and the GI50 [18] was 0.78 µM. The GI50 [21] was 0.0551 µM (active), the GI50 [23] was 0.132 µM (active) and the GI50 [25] was 0.0476 µM (active). For the same compound, the GI50 [27] was 1.34 µM (inactive), the GI50 [29] was 1.95 µM (inactive) and the GI50 [30] was 0.0207 µM (active). The GI50 [31] was 0.0538 µM (active), the GI50 [32] was 3.85 µM (inactive) and the GI50 [33] was 0.123 µM (active). The GI50 [35] was 0.207 µM (active), the GI50 [36] was 0.286 µM (active) and the GI50 [37] was 0.19 µM (active). The GI50 [38] was 0.0902 µM (active), the GI50 [40] was 0.344 µM (active) and the GI50 [41] was 0.119 µM (active). For the same compound, the GI50 [43] was 0.137 µM (active), the GI50 [45] was 0.0469 µM (active) and the GI50 [47] was 0.0792 µM (active). The GI50 [48] was 0.113 µM (active), the GI50 [49] was 0.762 µM (active) and the GI50 [50] was 0.0607 µM (active). For the same compound, the GI50 [51] was 0.044 µM (active), the GI50 [52] was 4.8 µM (inactive) and the GI50 [53] was 0.336 µM (active). For the same compound, the GI50 [54] was 7.29 µM (inactive) and the GI50 [57] was 0.0873 µM (active).
In the case of `Cc1cc(CC(=O)NCCO)n(CCO)c(=O)c1`, the GI50 [1] is reported as > 100 µM (inactive), the GI50 [2] is reported as > 100 µM (inactive) and the GI50 [3] is reported as > 100 µM (inactive). For the same compound, the GI50 [4] was > 100 µM (inactive), the GI50 [5] was > 100 µM (inactive) and the GI50 [6] was > 100 µM (inactive). For the same compound, the GI50 [7] was > 100 µM (inactive), the GI50 [8] was > 100 µM (inactive) and the GI50 [9] was > 100 µM (inactive). For the same compound, the GI50 [56] was > 100 µM (inactive), the GI50 [10] was > 100 µM (inactive) and the GI50 [11] was > 100 µM (inactive). The GI50 [12] was > 100 µM (inactive), the GI50 [14] was > 100 µM (inactive) and the GI50 [15] was > 100 µM (inactive). For the same compound, the GI50 [16] was > 100 µM (inactive), the GI50 [17] was > 100 µM (inactive) and the GI50 [19] was > 100 µM (inactive). The GI50 [20] was > 100 µM (inactive), the GI50 [58] was > 100 µM (inactive) and the GI50 [21] was > 100 µM (inactive). The GI50 [22] was > 100 µM (inactive), the GI50 [23] was > 100 µM (inactive) and the GI50 [24] was > 100 µM (inactive). The GI50 [27] was > 100 µM (inactive), the GI50 [28] was > 100 µM (inactive) and the GI50 [29] was > 100 µM (inactive). The GI50 [31] was > 100 µM (inactive), the GI50 [32] was > 100 µM (inactive) and the GI50 [33] was > 100 µM (inactive). For the same compound, the GI50 [34] was > 100 µM (inactive), the GI50 [35] was > 100 µM (inactive) and the GI50 [36] was 84.1 µM (inactive). For the same compound, the GI50 [37] was > 100 µM (inactive), the GI50 [38] was > 100 µM (inactive) and the GI50 [39] was > 100 µM (inactive). For the same compound, the GI50 [40] was > 100 µM (inactive), the GI50 [41] was > 100 µM (inactive) and the GI50 [42] was > 100 µM (inactive). The GI50 [43] was > 100 µM (inactive), the GI50 [44] was > 100 µM (inactive) and the GI50 [46] was > 100 µM (inactive). The GI50 [59] was > 100 µM (inactive), the GI50 [47] was > 100 µM (inactive) and the GI50 [48] was > 100 µM (inactive). The GI50 [49] was > 100 µM (inactive), the GI50 [50] was > 100 µM (inactive) and the GI50 [51] was > 100 µM (inactive). For the same compound, the GI50 [52] was > 100 µM (inactive), the GI50 [55] was > 100 µM (inactive) and the GI50 [57] was > 100 µM (inactive).
